In the supplement of paper PMC8612539:
≈ marks a conversion by molar mass, not a printed value.

System: Pasteurella multocida
Assay: minimum inhibitory concentration (MIC)
Method: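 Broth microdilution MIC (Sensititre BOPO7F bovine plate, CLSI methods) of 19 antimicrobials against field isolates of P. multocida, M. haemolytica, H. somni (deep nasopharyngeal swabs) and E. coli, Enterococcus spp. (rectal swabs) from weaned dairy heifers. Incubation 16-24 h at 35 C. MIC is the lowest concentration preventing visible growth. Values with <= or > lie at the tested range limits. Trimethoprim-sulfamethoxazole is given as the trimethoprim component of a 1:19 mixture.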

CN(C)[C@@H]1C(O)=C(C(N)=O)C(=O)[C@@]2(O)C(O)=C3C(=O)c4c(O)cccc4[C@@](C)(O)[C@H]3C[C@@H]12 [Tetracycline]
Settings | minimum inhibitory concentration [µg/mL]
isolate (source animal id): 10 | > 8
isolate (source animal id): 11 | > 8
isolate (source animal id): 12 | > 8
isolate (source animal id): 19 | > 8
isolate (source animal id): 23 | > 8
isolate (source animal id): 26 | > 8
isolate (source animal id): 98 | > 8
isolate (source animal id): 104 | > 8
isolate (source animal id): 115 | > 8
isolate (source animal id): 117 | > 8
isolate (source animal id): 118 | > 8
isolate (source animal id): 121 | > 8
isolate (source animal id): 124 | > 8
isolate (source animal id): 125 | > 8
isolate (source animal id): 128 | > 8
isolate (source animal id): 131 | > 8
isolate (source animal id): 135 | > 8
isolate (source animal id): 136 | > 8
isolate (source animal id): 140 | > 8
isolate (source animal id): 144 | > 8
isolate (source animal id): 146 | > 8
isolate (source animal id): 150 | > 8
isolate (source animal id): 151 | > 8
isolate (source animal id): 153 | > 8
isolate (source animal id): 155 | > 8
isolate (source animal id): 157 | > 8
isolate (source animal id): 160 | > 8
isolate (source animal id): 164 | > 8
isolate (source animal id): 165 | > 8
isolate (source animal id): 167 | > 8
isolate (source animal id): 168 | > 8
isolate (source animal id): 169 | 4 (≈ 9 µM)
isolate (source animal id): 170 | 8 (≈ 18 µM)
isolate (source animal id): 171 | 8 (≈ 18 µM)
isolate (source animal id): 172 | > 8
isolate (source animal id): 173 | > 8
isolate (source animal id): 174 | > 8
isolate (source animal id): 175 | > 8
isolate (source animal id): 176 | > 8
isolate (source animal id): 177 | > 8
isolate (source animal id): 178 | > 8
isolate (source animal id): 179 | 8 (≈ 18 µM)
isolate (source animal id): 182 | > 8
isolate (source animal id): 192 | > 8
isolate (source animal id): 193 | > 8
isolate (source animal id): 195 | > 8
isolate (source animal id): 196 | > 8
isolate (source animal id): 197 | > 8
isolate (source animal id): 198 | > 8
isolate (source animal id): 199 | 8 (≈ 18 µM)
isolate (source animal id): 200 | 8 (≈ 18 µM)
isolate (source animal id): 201 | 8 (≈ 18 µM)
isolate (source animal id): 203 | > 8
isolate (source animal id): 204 | > 8
isolate (source animal id): 205 | > 8
isolate (source animal id): 206 | > 8
isolate (source animal id): 207 | > 8
isolate (source animal id): 208 | 8 (≈ 18 µM)
isolate (source animal id): 209 | > 8
isolate (source animal id): 210 | > 8
isolate (source animal id): 213 | 8 (≈ 18 µM)
isolate (source animal id): 216 | 8 (≈ 18 µM)
isolate (source animal id): 223 | > 8
isolate (source animal id): 227 | > 8
isolate (source animal id): 229 | > 8
isolate (source animal id): 233 | > 8
isolate (source animal id): 234 | > 8
isolate (source animal id): 237 | > 8
isolate (source animal id): 241 | > 8
isolate (source animal id): 245 | > 8
isolate (source animal id): 247 | > 8
isolate (source animal id): 250 | > 8
isolate (source animal id): 254 | > 8
isolate (source animal id): 255 | > 8
isolate (source animal id): 258 | > 8
isolate (source animal id): 261 | > 8
isolate (source animal id): 262 | > 8
isolate (source animal id): 269 | 8 (≈ 18 µM)
isolate (source animal id): 270 | > 8
isolate (source animal id): 274 | > 8
isolate (source animal id): 275 | > 8
isolate (source animal id): 276 | > 8
isolate (source animal id): 277 | 8 (≈ 18 µM)
isolate (source animal id): 278 | > 8
isolate (source animal id): 279 | > 8
isolate (source animal id): 280 | > 8
isolate (source animal id): 284 | > 8
isolate (source animal id): 285 | > 8
isolate (source animal id): 287 | > 8
isolate (source animal id): 290 | > 8
isolate (source animal id): 294 | > 8
isolate (source animal id): 295 | > 8
isolate (source animal id): 296 | > 8
isolate (source animal id): 307 | > 8
isolate (source animal id): 310 | > 8
isolate (source animal id): 311 | > 8
isolate (source animal id): 312 | > 8
isolate (source animal id): 313 | > 8
isolate (source animal id): 315 | > 8
isolate (source animal id): 316 | > 8

CCCN1C[C@H](C)[C@@H](O)[C@](C)(O)[C@@H](CC)OC(=O)[C@H](C)[C@@H](O[C@H]2C[C@@](C)(OC)[C@@H](O)[C@H](C)O2)[C@H](C)[C@@H](O[C@@H]2O[C@H](C)C[C@H](N(C)C)[C@H]2O)[C@](C)(O)C[C@H]1C [Gamithromycin]
Settings | minimum inhibitory concentration [µg/mL]
isolate (source animal id): 10 | 8 (≈ 10.3 µM)
isolate (source animal id): 11 | 8 (≈ 10.3 µM)
isolate (source animal id): 12 | 8 (≈ 10.3 µM)
isolate (source animal id): 19 | 8 (≈ 10.3 µM)
isolate (source animal id): 23 | 4 (≈ 5.15 µM)
isolate (source animal id): 26 | 4 (≈ 5.15 µM)
isolate (source animal id): 98 | 8 (≈ 10.3 µM)
isolate (source animal id): 104 | > 8
isolate (source animal id): 115 | > 8
isolate (source animal id): 117 | 8 (≈ 10.3 µM)
isolate (source animal id): 118 | 8 (≈ 10.3 µM)
isolate (source animal id): 121 | > 8
isolate (source animal id): 124 | 8 (≈ 10.3 µM)
isolate (source animal id): 125 | 8 (≈ 10.3 µM)
isolate (source animal id): 128 | > 8
isolate (source animal id): 131 | > 8
isolate (source animal id): 135 | > 8
isolate (source animal id): 136 | > 8
isolate (source animal id): 140 | > 8
isolate (source animal id): 144 | 8 (≈ 10.3 µM)
isolate (source animal id): 146 | 8 (≈ 10.3 µM)
isolate (source animal id): 150 | > 8
isolate (source animal id): 151 | > 8
isolate (source animal id): 153 | > 8
isolate (source animal id): 155 | 8 (≈ 10.3 µM)
isolate (source animal id): 157 | 4 (≈ 5.15 µM)
isolate (source animal id): 160 | > 8
isolate (source animal id): 164 | > 8
isolate (source animal id): 165 | > 8
isolate (source animal id): 167 | ≤ 1
isolate (source animal id): 168 | 8 (≈ 10.3 µM)
isolate (source animal id): 169 | ≤ 1
isolate (source animal id): 170 | 2 (≈ 2.57 µM)
isolate (source animal id): 171 | ≤ 1
isolate (source animal id): 172 | ≤ 1
isolate (source animal id): 173 | > 8
isolate (source animal id): 174 | ≤ 1
isolate (source animal id): 175 | ≤ 1
isolate (source animal id): 176 | ≤ 1
isolate (source animal id): 177 | ≤ 1
isolate (source animal id): 178 | ≤ 1
isolate (source animal id): 179 | ≤ 1
isolate (source animal id): 182 | 4 (≈ 5.15 µM)
isolate (source animal id): 192 | ≤ 1
isolate (source animal id): 193 | ≤ 1
isolate (source animal id): 195 | 2 (≈ 2.57 µM)
isolate (source animal id): 196 | ≤ 1
isolate (source animal id): 197 | 2 (≈ 2.57 µM)
isolate (source animal id): 198 | > 8
isolate (source animal id): 199 | ≤ 1
isolate (source animal id): 200 | ≤ 1
isolate (source animal id): 201 | ≤ 1
isolate (source animal id): 203 | ≤ 1
isolate (source animal id): 204 | ≤ 1
isolate (source animal id): 205 | > 8
isolate (source animal id): 206 | ≤ 1
isolate (source animal id): 207 | ≤ 1
isolate (source animal id): 208 | ≤ 1
isolate (source animal id): 209 | ≤ 1
isolate (source animal id): 210 | > 8
isolate (source animal id): 213 | ≤ 1
isolate (source animal id): 216 | ≤ 1
isolate (source animal id): 223 | 8 (≈ 10.3 µM)
isolate (source animal id): 227 | ≤ 1
isolate (source animal id): 229 | 8 (≈ 10.3 µM)
isolate (source animal id): 233 | 8 (≈ 10.3 µM)
isolate (source animal id): 234 | 8 (≈ 10.3 µM)
isolate (source animal id): 237 | 8 (≈ 10.3 µM)
isolate (source animal id): 241 | 8 (≈ 10.3 µM)
isolate (source animal id): 245 | 8 (≈ 10.3 µM)
isolate (source animal id): 247 | 8 (≈ 10.3 µM)
isolate (source animal id): 250 | 8 (≈ 10.3 µM)
isolate (source animal id): 254 | 8 (≈ 10.3 µM)
isolate (source animal id): 255 | 8 (≈ 10.3 µM)
isolate (source animal id): 258 | ≤ 1
isolate (source animal id): 261 | 8 (≈ 10.3 µM)
isolate (source animal id): 262 | 8 (≈ 10.3 µM)
isolate (source animal id): 269 | ≤ 1
isolate (source animal id): 270 | 8 (≈ 10.3 µM)
isolate (source animal id): 274 | 8 (≈ 10.3 µM)
isolate (source animal id): 275 | 8 (≈ 10.3 µM)
isolate (source animal id): 276 | 8 (≈ 10.3 µM)
isolate (source animal id): 277 | ≤ 1
isolate (source animal id): 278 | 8 (≈ 10.3 µM)
isolate (source animal id): 279 | 8 (≈ 10.3 µM)
isolate (source animal id): 280 | > 8
isolate (source animal id): 284 | > 8
isolate (source animal id): 285 | > 8
isolate (source animal id): 287 | 8 (≈ 10.3 µM)
isolate (source animal id): 290 | 8 (≈ 10.3 µM)
isolate (source animal id): 294 | 8 (≈ 10.3 µM)
isolate (source animal id): 295 | > 8
isolate (source animal id): 296 | 8 (≈ 10.3 µM)
isolate (source animal id): 307 | 8 (≈ 10.3 µM)
isolate (source animal id): 310 | 8 (≈ 10.3 µM)
isolate (source animal id): 311 | 8 (≈ 10.3 µM)
isolate (source animal id): 312 | > 8
isolate (source animal id): 313 | > 8
isolate (source animal id): 315 | > 8
isolate (source animal id): 316 | > 8
